Results: ChEMBL document CHEMBL3992502, “Structural optimization of diphenylpyrimidine derivatives (DPPYs) as potent Bruton's tyrosine kinase (BTK) inhibitors with improved activity toward B leukemia cell lines” (Eur J Med Chem, 2017)

Legend:
[1] = target: T1, Tyrosine-protein kinase BTK (Homo sapiens, UniProt Q06187); test: Inhibition of N-terminal His-tagged full length human recombinant BTK expressed in baculovirus infected Sf9 insect cells using Poly (4:1 Glu, Tyr) peptide substrate incubated for 60 mins by ADP-Glo luminescence assay
[2] = target: T1, Tyrosine-protein kinase BTK; test: Irreversible inhibition of N-terminal His-tagged full length human recombinant BTK expressed in baculovirus infected Sf9 insect cells using Poly (4:1 Glu, Tyr) peptide substrate assessed as luminescence of compound linked enzyme at 5000 nmol/L incubated for 60 mins by ADP-Glo kinase assay (reference value: 9976)
[3] = tested on: Ramos; test: Antiproliferative activity against human Ramos cells after 48 hrs by CCK-8 assay; format: functional, cell-based
[4] = tested on: Raji; test: Antiproliferative activity against human Raji cells after 48 hrs by CCK-8 assay
[5] = tested on: PBMC; test: Cytotoxicity against human PBMC assessed as change in cell morphology at <20 uM after 24 hrs by phase contrast microscopy; format: cell-based
[6] = tested on: Ramos; test: Induction of apoptosis in human Ramos cells assessed as viable cells at 10 uM after 48 hrs by Annexin V-FITC/propidium iodide staining based flow cytometry (reference value: 94.3%); format: functional; conditions: read-out: Activity
[7] = tested on: Ramos; test: Induction of apoptosis in human Ramos cells assessed as early apoptotic cells at 10 uM after 48 hrs by Annexin V-FITC/propidium iodide staining based flow cytometry (reference value: 1.7%); format: functional
[8] = tested on: Ramos; test: Induction of apoptosis in human Ramos cells assessed as late apoptotic cells at 10 uM after 48 hrs by Annexin V-FITC/propidium iodide staining based flow cytometry (reference value: 3%); format: functional
[9] = tested on: Ramos; test: Induction of apoptosis in human Ramos cells assessed as necrotic cells at 10 uM after 48 hrs by Annexin V-FITC/propidium iodide staining based flow cytometry (reference value: 1%); format: functional
[10] = tested on: Ramos; test: Induction of apoptosis in human Ramos cells assessed as viable cells at 5 uM after 48 hrs by Annexin V-FITC/propidium iodide staining based flow cytometry (reference value: 94.3%); format: functional; conditions: read-out: Activity
[11] = tested on: Ramos; test: Induction of apoptosis in human Ramos cells assessed as early apoptotic cells at 5 uM after 48 hrs by Annexin V-FITC/propidium iodide staining based flow cytometry (reference value: 1.7%); format: functional
[12] = tested on: Ramos; test: Induction of apoptosis in human Ramos cells assessed as late apoptotic cells at 5 uM after 48 hrs by Annexin V-FITC/propidium iodide staining based flow cytometry (reference value: 3%); format: functional
[13] = tested on: Ramos; test: Induction of apoptosis in human Ramos cells assessed as necrotic cells at 5 uM after 48 hrs by Annexin V-FITC/propidium iodide staining based flow cytometry (reference value: 1%); format: functional
[14] = tested on: Ramos; test: Induction of apoptosis in human Ramos cells assessed as viable cells at 20 uM after 48 hrs by Annexin V-FITC/propidium iodide staining based flow cytometry (reference value: 94.3%); format: functional; conditions: read-out: Activity
[15] = tested on: Ramos; test: Induction of apoptosis in human Ramos cells assessed as early apoptotic cells at 20 uM after 48 hrs by Annexin V-FITC/propidium iodide staining based flow cytometry (reference value: 1.7%); format: functional
[16] = tested on: Ramos; test: Induction of apoptosis in human Ramos cells assessed as late apoptotic cells at 20 uM after 48 hrs by Annexin V-FITC/propidium iodide staining based flow cytometry (reference value: 3%); format: functional
[17] = tested on: Ramos; test: Induction of apoptosis in human Ramos cells assessed as necrotic cells at 20 uM after 48 hrs by Annexin V-FITC/propidium iodide staining based flow cytometry (reference value: 1%); format: functional
[18] = tested on: Ramos; test: Cell cycle arrest in human Ramos cells assessed as accumulation at G0/G1 phase at 10 uM after 48 hrs by propidium iodide staining based flow cytometry (reference value: 56.19%); format: functional
[19] = tested on: Ramos; test: Cell cycle arrest in human Ramos cells assessed as accumulation at S phase at 10 uM after 48 hrs by propidium iodide staining based flow cytometry (reference value: 42.23%); format: functional
[20] = tested on: Ramos; test: Cell cycle arrest in human Ramos cells assessed as accumulation at G2/M phase at 10 uM after 48 hrs by propidium iodide staining based flow cytometry (reference value: 1.58%); format: functional
[21] = tested on: Ramos; test: Cell cycle arrest in human Ramos cells assessed as accumulation at G0/G1 phase at 20 uM after 48 hrs by propidium iodide staining based flow cytometry (reference value: 56.19%); format: functional
[22] = tested on: Ramos; test: Cell cycle arrest in human Ramos cells assessed as accumulation at G2/M phase at 20 uM after 48 hrs by propidium iodide staining based flow cytometry (reference value: 1.58%); format: functional
[23] = tested on: Ramos; test: Cell cycle arrest in human Ramos cells assessed as accumulation at S phase at 20 uM after 48 hrs by propidium iodide staining based flow cytometry (reference value: 42.23%); format: functional
[24] = tested on: Ramos; test: Cell cycle arrest in human Ramos cells assessed as accumulation at G0/G1 phase at 5 uM after 48 hrs by propidium iodide staining based flow cytometry (reference value: 56.19%); format: functional
[25] = tested on: Ramos; test: Cell cycle arrest in human Ramos cells assessed as accumulation at S phase at 5 uM after 48 hrs by propidium iodide staining based flow cytometry (reference value: 42.23%); format: functional
[26] = tested on: Ramos; test: Cell cycle arrest in human Ramos cells assessed as accumulation at G2/M phase at 5 uM after 48 hrs by propidium iodide staining based flow cytometry (reference value: 1.58%); format: functional

T1 sequence (Q06187 whole entry): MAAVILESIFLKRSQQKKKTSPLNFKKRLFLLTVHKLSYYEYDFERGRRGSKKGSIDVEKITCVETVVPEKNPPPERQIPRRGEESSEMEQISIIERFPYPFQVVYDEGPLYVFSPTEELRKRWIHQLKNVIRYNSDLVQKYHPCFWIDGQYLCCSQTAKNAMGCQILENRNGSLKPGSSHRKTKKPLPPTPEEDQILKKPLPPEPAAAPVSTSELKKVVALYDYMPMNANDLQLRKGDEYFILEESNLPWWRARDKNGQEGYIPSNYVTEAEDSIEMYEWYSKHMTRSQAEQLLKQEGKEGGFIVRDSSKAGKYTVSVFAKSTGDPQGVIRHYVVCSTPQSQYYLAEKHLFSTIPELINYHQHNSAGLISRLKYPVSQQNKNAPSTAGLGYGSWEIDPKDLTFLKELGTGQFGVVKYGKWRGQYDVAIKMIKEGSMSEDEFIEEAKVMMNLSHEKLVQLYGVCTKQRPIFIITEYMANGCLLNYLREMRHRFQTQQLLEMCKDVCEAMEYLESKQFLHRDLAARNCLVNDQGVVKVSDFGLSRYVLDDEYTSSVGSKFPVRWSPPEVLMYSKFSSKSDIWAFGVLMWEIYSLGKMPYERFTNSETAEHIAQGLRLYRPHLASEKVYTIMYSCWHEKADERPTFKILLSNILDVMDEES

`C=CC(=O)Nc1cccc(Nc2nc(Nc3ccc(OCC4CCCO4)cc3)ncc2Cl)c1` (stereo not given) showed an IC50 [1] of 12.1 nM, an Activity [2] of 383 RLU and an IC50 [3] of 10.5 µM. The IC50 [4] was 19.1 µM, the Activity [5] was “Non-Toxic” and the viability at 10 µM [6] was 50%. For the same compound, the Activity [7] was 12.6%, the Activity [8] was 34.2% and the Activity [9] was 1.2%. For the same compound, the viability at 5 µM [10] was 50.1%, the Activity [11] was 11% and the Activity [12] was 27%. It also gave an Activity [13] of 2.2%, a viability at 20 µM [14] of 16.2% and an Activity [15] of 26.4%. It also gave an Activity [16] of 57.2%, an Activity [17] of 0.1% and an Activity [18] of 63%. For the same compound, the Activity [19] was 37%, the Activity [20] was 0% and the Activity [21] was 70.75%. It also gave an Activity [22] of 0.86%, an Activity [23] of 28.39% and an Activity [24] of 53.18%. It also gave an Activity [25] of 46.82% and an Activity [26] of 0%.
`C=CC(=O)Nc1cccc(Nc2nc(Nc3ccc(NC(=O)CN(CCOC)CCOC)c(C)c3)ncc2Cl)c1` showed an IC50 [1] of 20 nM, an IC50 [3] of 19.6 µM and an IC50 [4] of 35.6 µM.
With `C=CC(=O)Nc1cccc(Nc2nc(Nc3ccc(N(CCOC)CCOC)cc3)ncc2Cl)c1` the IC50 [1] was 4.94 nM, the IC50 [3] was 13 µM and the IC50 [4] was 30.5 µM.
`C=CC(=O)Nc1cccc(Nc2nc(Nc3ccc(OCC(=O)N(CCOC)CCOC)cc3)ncc2F)c1` showed an IC50 [1] of 27.2 nM, an IC50 [3] greater than 40 µM and an IC50 [4] of 36 µM.
Work on `C=CC(=O)Nc1cccc(Nc2nc(Nc3ccc(OCC(=O)N(CCOC)CCOC)c(Cl)c3)ncc2Cl)c1` yielded an IC50 [1] greater than 100 nM, an IC50 [3] of 16.9 µM and an IC50 [4] of 19.3 µM.
With `C=CC(=O)Nc1cccc(Nc2nc(Nc3ccc(OCC4CCCO4)cc3)ncc2F)c1` (stereo not given) the IC50 [1] was 22.4 nM, the IC50 [3] was 22.3 µM and the IC50 [4] was 38.6 µM.
Work on `C=CC(=O)Nc1cccc(Nc2nc(Nc3ccc(NC(=O)CN(CCOC)CCOC)c(OC)c3)ncc2Cl)c1` yielded an IC50 [1] greater than 100 nM, an IC50 [3] of 11 µM and an IC50 [4] of 20.9 µM.
With `C=CC(=O)Nc1cccc(Nc2nc(Nc3ccc(OCCOC)cc3)ncc2F)c1` [SPEBRUTINIB] the IC50 [3] was 20.9 µM, the IC50 [4] was 29.4 µM and the viability at 10 µM [6] was 54%. The Activity [7] was 21.2%, the Activity [8] was 20.4% and the Activity [9] was 4.3%. For the same compound, the Activity [18] was 31.02%, the Activity [19] was 47.9% and the Activity [20] was 20.91%.
With `C=CC(=O)Nc1cccc(Nc2nc(Nc3ccc(NC(=O)CN(CCOC)CCOC)cc3)ncc2F)c1` the IC50 [1] was 91.3 nM, the IC50 [3] was 35.6 µM and the IC50 [4] was 36.9 µM.
With `C=CC(=O)Nc1cccc(Nc2nc(Nc3ccc(N(CCOC)CCOC)cc3)ncc2F)c1` the IC50 [1] was 7.12 nM, the IC50 [3] was 18.1 µM and the IC50 [4] was 23.8 µM.
`C=CC(=O)Nc1cccc(Nc2nc(Nc3ccc(OCC(=O)N(CCOC)CCOC)cc3)ncc2Cl)c1` was tested, and the IC50 [1] was 2.83 nM, the IC50 [3] was 18.1 µM and the IC50 [4] was 20.1 µM.
`C=CC(=O)N1CCC[C@@H](n2nc(-c3ccc(Oc4ccccc4)cc3)c3c(N)ncnc32)C1` [IBRUTINIB] gave an IC50 [3] of 12.6 µM, a viability at 10 µM [6] of 52% and an Activity [7] of 37%. For the same compound, the Activity [9] was 0.1%, the Activity [18] was 46.35% and the Activity [19] was 53.5%. The Activity [20] was 0.15%.
With `C=CC(=O)Nc1cccc(Nc2nc(Nc3ccc(NC(=O)CN(CCOC)CCOC)cc3)ncc2Cl)c1` the IC50 [1] was 22.6 nM, the IC50 [3] was 14.8 µM and the IC50 [4] was 19.9 µM.
For `C=CC(=O)Nc1cccc(Nc2nc(Nc3ccc(OCC(=O)OCC4CCCO4)cc3)ncc2Cl)c1` (stereo not given), the IC50 [1] was 0.23 nM, the IC50 [3] was greater than 40 µM and the IC50 [4] was 9.4 µM.
